Results: the NIST ThermoML archive (doi:10.1016/j.tca.2014.08.003)

Conditions: Crystal, Calculated from knudsen effusion weight loss

[Cu][Br] [copper(1+) bromide]
Conditions | vapor or sublimation pressure [kPa]
528.8 K | 1.17e-05
530.1 K | 9.37e-06
532 K | 1.25e-05
551.4 K | 2.45e-05
551.6 K | 3.17e-05
553.5 K | 4.55e-05
570.8 K | 9.35e-05
572.6 K | 0.000104
573.5 K | 0.000113
592.1 K | 0.000235
593.8 K | 0.000273
594.6 K | 0.000301
611.9 K | 0.000512
614.9 K | 0.000595
618.1 K | 0.000705
633 K | 0.00115
634.1 K | 0.00121
635 K | 0.00109
655.2 K | 0.00229
656.8 K | 0.00229
658.2 K | 0.00269

[Br-].[Br-].[Zn+2] [zinc bromide]
Conditions | vapor or sublimation pressure [kPa]
452.5 K | 2.26e-05
452.8 K | 2.04e-05
453.1 K | 2.07e-05
453.6 K | 1.28e-05
469.4 K | 4.74e-05
472.1 K | 9.63e-05
472.7 K | 8.63e-05
473.8 K | 7.35e-05
492.8 K | 0.000262
493.1 K | 0.000181
493.2 K | 0.000217
493.9 K | 0.000252
511.2 K | 0.000691
511.3 K | 0.000577
513 K | 0.000684
513.1 K | 0.000719
528.9 K | 0.00158
530.2 K | 0.00192
532.9 K | 0.00201
533.9 K | 0.0019
551.6 K | 0.0051
552 K | 0.00505
552.7 K | 0.00453
552.8 K | 0.00521
568 K | 0.00978
570.3 K | 0.0106
572.3 K | 0.00997
574 K | 0.0126
